Experimental data reported in US20230310445A1, “LOX ENZYME INHIBITING METHODS AND COMPOSITIONS” (ANOVIA BIOSCIENCES, INC., priority 2020, published 2023).

Assays:
[1] = target: T1, Recombinant human LOXL2 (lysyl oxidase like 2) (Homo sapiens, UniProt Q9Y4K0); test: LOXL2 inhibition assay (fluorometric, cadaverine/Amplex Red/HRP); format: biochemical; settings: IC50 class; recombinant human LOXL2, cadaverine substrate; read-out: Activity Range LOXL2
T1 construct: purchased R&D systems
T1 sequence (Q9Y4K0 26-774): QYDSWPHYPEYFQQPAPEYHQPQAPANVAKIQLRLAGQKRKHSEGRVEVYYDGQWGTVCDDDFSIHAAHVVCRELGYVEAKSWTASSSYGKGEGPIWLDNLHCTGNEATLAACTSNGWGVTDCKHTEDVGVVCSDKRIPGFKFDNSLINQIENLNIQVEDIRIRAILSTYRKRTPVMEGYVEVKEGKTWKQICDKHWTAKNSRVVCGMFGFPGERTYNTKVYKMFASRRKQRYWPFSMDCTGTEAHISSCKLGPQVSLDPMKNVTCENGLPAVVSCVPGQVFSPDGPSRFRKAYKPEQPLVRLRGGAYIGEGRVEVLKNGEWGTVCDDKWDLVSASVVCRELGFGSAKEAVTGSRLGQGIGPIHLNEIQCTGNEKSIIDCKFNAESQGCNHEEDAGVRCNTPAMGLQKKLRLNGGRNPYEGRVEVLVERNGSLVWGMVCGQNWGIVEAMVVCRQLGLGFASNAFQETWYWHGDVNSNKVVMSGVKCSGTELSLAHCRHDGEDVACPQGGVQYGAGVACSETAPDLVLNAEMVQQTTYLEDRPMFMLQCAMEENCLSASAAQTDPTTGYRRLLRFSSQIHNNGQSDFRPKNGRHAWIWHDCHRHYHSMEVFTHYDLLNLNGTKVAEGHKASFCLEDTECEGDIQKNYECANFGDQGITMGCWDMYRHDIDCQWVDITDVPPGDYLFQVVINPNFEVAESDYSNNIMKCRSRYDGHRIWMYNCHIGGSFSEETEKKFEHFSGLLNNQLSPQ
Procedure, shortened: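 Both enzymes assayed in 1.2 M urea, 50 mM sodium borate pH 8.0, 10 mM CaCl, with 30 min compound–enzyme preincubation at 37° C before cadaverine/Amplex Red/HRP addition. Fluorescence followed 60 min at 37° C; linear-slope rates, background-subtracted, as % of DMSO control, fitted by 4-parameter variable-slope curve (bottom fixed at 0).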

[2] = target: T2, Recombinant human LOXL3 (lysyl oxidase like 3) (Homo sapiens, UniProt P58215); test: LOXL3 inhibition assay (fluorometric, cadaverine/Amplex Red/HRP); format: biochemical; settings: IC50 class; recombinant human LOXL3, cadaverine substrate; read-out: Activity Range LOXL3
T2 construct: purchased R&D systems
T2 sequence (P58215 26-753): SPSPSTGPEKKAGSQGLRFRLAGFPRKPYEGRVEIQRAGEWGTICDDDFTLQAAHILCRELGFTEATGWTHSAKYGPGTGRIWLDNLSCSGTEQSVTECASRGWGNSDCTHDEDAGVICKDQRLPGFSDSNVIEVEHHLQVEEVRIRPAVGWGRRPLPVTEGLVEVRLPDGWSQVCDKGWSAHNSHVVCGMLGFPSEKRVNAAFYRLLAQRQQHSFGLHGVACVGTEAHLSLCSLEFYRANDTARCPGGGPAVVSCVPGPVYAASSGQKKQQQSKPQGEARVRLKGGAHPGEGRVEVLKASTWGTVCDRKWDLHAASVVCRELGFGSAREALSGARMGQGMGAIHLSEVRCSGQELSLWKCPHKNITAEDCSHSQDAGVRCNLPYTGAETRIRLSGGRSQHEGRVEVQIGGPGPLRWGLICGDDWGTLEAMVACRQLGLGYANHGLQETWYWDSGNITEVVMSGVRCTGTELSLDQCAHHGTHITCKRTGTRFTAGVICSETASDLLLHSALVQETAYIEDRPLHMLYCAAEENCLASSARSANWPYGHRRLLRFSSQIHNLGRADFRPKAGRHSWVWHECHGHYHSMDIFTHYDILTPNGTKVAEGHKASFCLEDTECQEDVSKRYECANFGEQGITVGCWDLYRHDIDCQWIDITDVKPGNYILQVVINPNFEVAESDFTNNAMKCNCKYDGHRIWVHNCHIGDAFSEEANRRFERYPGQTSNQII
Protocol: The ability of compounds to inhibit one or more of the lysyl oxidases LOXL2 and/or LOXL3 was determined using a fluorometric assay. This assay measures the activity of lysyl oxidases by coupling the reaction with horseradish peroxidase-catalyzed […]. The activity assay protocol uses cadaverine as substrate that releases hydrogen peroxide upon transformation by the specific LOX family enzyme present in the sample. Hydrogen peroxide is in turn detected using a red fluorescence substrate for HRP-coupled reactions (Amplex Red Enzyme Assays, Thermo Scientific Fisher). This leads to increase in fluorescence that can be easily detected at Ex/Em=540/590 nm in a fluorescence microplate reader.
Enzymes: Recombinant human LOXL2 (lysyl oxidase like 2) and recombinant human LOXL3 (lysyl oxidase like 3) were purchased from R&D systems and assays were performed in 1.2 M urea, 50 mM sodium borate buffer pH 8.0, and 10 mM CaCl.
Reaction: Final concentration in the LOXL2 and LOXL3 assays were as following and performed in a total volume of […]:
Experimental procedure: 5 μl of freshly prepared reaction buffer were delivered to reaction wells. Compounds were resuspended in 100% DMSO at 10 mM and delivered into buffer using acoustic technology (Echo550; nanoliter range). A 3× solution of LOXL2 or LOXL3 in reaction buffer was prepared (“enzyme solution”) and 5 μL of enzyme solution was added into the reaction wells. Buffer only was added to column 1 for no protein control. Reactions were incubated for 30 minutes at 37° C. A 3×mixture of cadaverine, Amplex Red, and HRP (“Substrate/Detection Mix) was prepared and subsequently 5 μL of the mixture added to each reaction well. Progress of reactions was monitored for 60 minutes at 37° C. using Clariostar plate reader (ex 530-12, ems 600-40). For all activity assays, pan-LOX inhibitor CCT365623 (Tang et al, 2017) and LOXL2/LOXL3 inhibitor PAT-1251 (PharmaKea) were included as standards.
Data analysis: Slope of the linear portion of the progress curve was calculated using Clariostar software. Typical analysis interval was between 8-30 min, but varied between experiments. The background subtracted signals (No protein wells are considered as background) were converted to % activity relative to DMSO controls. Data was analyzed using GraphPad Prism 4 with “sigmoidal dose-response (variable slope)”; 4 parameters with Hill Slope. Constraints: Bottom=Constant equal to 0. Top=Must be less than 120.

Row | IC50 [1] | IC50 [2] | SMILES
1 | 1 to 30 µM | > 30 µM | NCc1cccc(S(=O)(=O)N2C[C@H](C(=O)N3CCOCC3)C[C@@H](c3ccccc3)C2)n1 (racemic) [Example 114T, trans-(1-((6-(Aminomethyl)pyridin-2-yl)sulfonyl)-5-phenylpiperidin-3-yl)(morpholino)methanone 2,2,2-trifluoroacetate]
2 | > 30 µM | > 30 µM | NCc1cccc(S(=O)(=O)N2C[C@@H](C(=O)N3CCS(=O)(=O)CC3)C[C@@H](c3ccccc3)C2)n1 (racemic) [Example 115, cis-(1-((6-(Aminomethyl)pyridin-2-yl)sulfonyl)-5-phenylpiperidin-3-yl)(1,1-dioxidothiomorpholino)methanone 2,2,2-trifluoroacetate]
